Assay results reported in patent US8877707B2, “Inhibitors of HCV NS5A” (Presidio Pharmaceuticals, Inc., priority 2010, dated 2014).
Read-outs that look alike come from different tables or passages of the source.

Test system: HCV genotype 1b replicon in Huh 7 cells
Assay: HCV replicon assay (1b_Huh-Luc/Neo-ET cell line, luciferase readout)
Type: cell-based
Details: Hepatitis C virus, read-out: Inhibition of HCV genotype 1b
Summary of the method: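 Replicon level was read as luciferase signal after 72 h compound exposure, triplicate wells, starting the day after cells were plated. Cell line: 1b_Huh-Luc/Neo-ET. Values normalised to control as percent, and EC50 fitted with a variable-slope sigmoid; determinations repeated.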

[1] = Table 1, genotype 1b replicon, Huh 7 cells, 72 h, luciferase
[2] = Table 2, genotype 1b replicon, Huh 7 cells, 72 h, luciferase

| SMILES | EC50 [1] | other results |
| --- | --- | --- |
| CC[C@H](NC(=O)OC)C(=O)N1CCC[C@H]1c1ncc(-c2ccc(-c3ccc4cc(-c5cnc([C@@H]6CCCN6C(=O)[C@H](CC)NC(=O)OC)[nH]5)ccc4c3)cc2)[nH]1 [compound 173] | < 1 nM | – |
| COC(=O)N[C@H](C(=O)N1CCC[C@H]1c1ncc(-c2ccc(-c3ccc4cc(-c5cnc([C@@H]6CCCN6C(=O)[C@@H](NC(=O)OC)[C@@H](C)OC)[nH]5)ccc4c3)nc2)[nH]1)C(C)C [compound 479] | – | EC50 (Huh-7, HCV 1b replicon): < 1 nM |
| COC(=O)N[C@@H](C(=O)N1CCC[C@H]1c1ncc(-c2ccc3nc(-c4ccc(-c5cnc([C@@H]6CN(C(C)=O)CCN6C(=O)[C@H](NC(=O)OC)c6ccccc6)[nH]5)cc4)ccc3c2)[nH]1)c1ccccc1 [compound 494] | – | EC50 (Huh-7, HCV 1b replicon): < 1 nM |
| COC(=O)N[C@H](C(=O)N1CCC[C@H]1c1ncc(-c2ccc(-c3ccc4cc(-c5cnc([C@@H]6CCCN6C(=O)[C@@H](NC(=O)OC)C(C)C)[nH]5)ccc4c3)c(C(F)(F)F)c2)[nH]1)C(C)C [compound 310] | – | EC50 [2]: < 1 nM |
| COC(=O)N[C@H](C(=O)N1CCC[C@H]1c1ncc(-c2ccc(-c3ccc4cc(-c5cnc([C@@H]6CCCN6C(=O)[C@H](NC(=O)OC(C)(C)C)c6ccccc6)[nH]5)ccc4n3)c(F)c2)[nH]1)C1CCOCC1 [compound 136] | < 1 nM | – |
| COC(=O)N[C@H](C(=O)N1CCC[C@H]1c1ncc(-c2ccc3nc(-c4ccc5nc([C@@H]6CCCN6C(=O)[C@@H](NC(=O)OC)[C@@H](C)OC)[nH]c5c4)ccc3c2)[nH]1)[C@@H](C)OC [compound 386] | – | EC50 [2]: < 1 nM |
| COC(=O)N[C@H](C(=O)N1CCC[C@H]1c1ncc(-c2ccc(-c3cccc4c(-c5cnc([C@@H]6CCCN6C(=O)[C@@H](NC(=O)OC)C(C)C)[nH]5)cccc34)cc2)[nH]1)C(C)C [compound 20] | < 1 nM | – |
| CC[C@H](C)[C@H](NC(=O)OC)C(=O)N1CCC[C@H]1c1ncc(-c2ccc3cc(-c4cc5[nH]c([C@@H]6CCCN6C(=O)[C@@H](NC(=O)OC)[C@@H](C)CC)nc5cn4)ccc3c2)[nH]1 [compound 412] | – | EC50 [2]: < 1 nM |
| COC(=O)N[C@H](C(=O)N1CCC[C@H]1c1ncc(-c2ccc(-c3ccc4cc(-c5cnc([C@@H]6CCCN6C(=O)[C@H](NC(=O)OC(C)(C)C)c6ccccc6)[nH]5)ccc4n3)c(F)c2)[nH]1)C(C)C [compound 122] | < 1 nM | – |
| COC(=O)N[C@H](C(=O)N1CCC[C@H]1c1nc(-c2ccc3cc(-c4ccc(-c5cnc([C@@H]6CCCN6C(=O)[C@H](NC(=O)OC)c6ccccc6)[nH]5)cn4)ccc3c2)c[nH]1)C(C)C [compound 56] | < 1 nM | – |
| COC(=O)N[C@H](C(=O)N1CCC[C@H]1c1nc2c([nH]1)-c1ccc(-c3ccc4cc(-c5cnc([C@@H]6CCCN6C(=O)[C@H](NC(=O)OC6CCOCC6)c6ccccc6)[nH]5)ccc4n3)cc1CC2)C(C)C [295-1] | < 1 nM | – |
| COC(=O)N[C@H](C(=O)N1CCC[C@H]1c1ncc(-c2ccc3cc(-c4ccc(-c5cnc([C@@H]6CCCN6C(=O)[C@H](NC(=O)OC)c6ccsc6)[nH]5)cc4)ccc3c2)[nH]1)[C@@H](C)OC [330-1] | – | EC50 [2]: < 1 nM |
| COC(=O)N[C@H](C(=O)N1CCC[C@H]1c1ncc(-c2ccc3nc(-c4ccc(-c5cnc([C@@H]6CCCN6C(=O)[C@H](NC(=O)OC)c6ccccc6)[nH]5)cc4F)ccc3c2)[nH]1)C1CCOCC1 [compound 134] | < 1 nM | – |
| COC[C@H](NC(=O)OC)C(=O)N1CCC[C@H]1c1ncc(-c2ccc3cc(-c4ccc(-c5cnc([C@@H]6CCCN6C(=O)[C@H](NC(=O)OC)c6ccsc6)[nH]5)cc4)ccc3c2)[nH]1 [compound 465] | – | EC50 (Huh-7, HCV 1b replicon): < 1 nM |
| CNC(=O)N[C@@H](C(=O)N1CCC[C@H]1c1ncc(-c2ccc(-c3ccc4cc(-c5c[nH]c([C@@H]6CCCN6C(=O)[C@@H](NC(=O)OC)C(C)C)n5)ccc4c3)cc2)[nH]1)c1ccccc1 [compound 18] | < 1 nM | – |
| COC(=O)N[C@H](C(=O)N1CCC[C@H]1c1nc(-c2cnc3cc(-c4ccc(-c5cnc([C@@H]6CCCN6C(=O)[C@@H](NC(=O)OC)C6CCOCC6)[nH]5)cn4)ccc3c2)c[nH]1)C1CCOCC1 [compound 75] | < 1 nM | – |
| COC(=O)N[C@H](C(=O)N1CCC[C@H]1c1ncc(-c2ccc(-c3ccc4cc(-c5c[nH]c([C@@H]6CCCN6C(=O)[C@@H](NC(=O)OC)C6CCOCC6)n5)ccc4c3)cc2)[nH]1)C(C)C [compound 47] | < 1 nM | – |
| COC(=O)N[C@H](C(=O)N1CCC[C@H]1c1ncc(-c2ccc3cc(-c4cnc5nc([C@@H]6CCCN6C(=O)[C@@H](NC(=O)OC)C(C)C)[nH]c5c4)ccc3c2)[nH]1)C(C)C [compound 402] | – | EC50 [2]: 1 to 9.9 nM |
| COC(=O)N[C@H](C(=O)N1CCC[C@H]1c1nc(-c2ccc3cc(-c4ccc(-c5cnc([C@@H]6CCCN6C(=O)[C@H](NC(=O)NC(C)(C)C)c6ccccc6)[nH]5)cc4)ccc3c2)c[nH]1)C(C)C [compound 25] | < 1 nM | – |
| COC(=O)N[C@H](C(=O)N1CCC[C@H]1c1nc(-c2ccc3cc(-c4ccc(-c5cnc([C@@H]6CCCN6C(=O)[C@@H](NC(=O)OC)C(C)C)[nH]5)cn4)ccc3c2)c[nH]1)C(C)C [compound 13] | < 1 nM | – |

| SMILES | EC50 [1] | other results |
| --- | --- | --- |
| COC(=O)N[C@H](C(=O)N1CCC[C@H]1c1ncc(-c2ccc(-c3ccc4cc(-c5c[nH]c([C@@H]6CCCN6C(=O)[C@@H](c6ccccc6)N(C)C)n5)ccc4c3)cc2)[nH]1)C(C)C [compound 6] | < 1 nM | – |
| COC(=O)N[C@H](C(=O)N1CC[C@H](O)[C@H]1c1ncc(-c2ccc3cc(-c4ccc(-c5cnc([C@@H]6CCCN6C(=O)[C@@H](NC(=O)OC)C(C)C)[nH]5)cc4)ccc3c2)[nH]1)C(C)C [compound 306] | – | EC50 [2]: < 1 nM |
| COC(=O)N[C@H](C(=O)N1CCC[C@H]1c1ncc(-c2ccc3nc(-c4ccc5nc([C@@H]6CCCN6C(=O)[C@H](NC(=O)OC)c6ccccc6)[nH]c5c4)ccc3c2)[nH]1)C(C)C [compound 197] | < 1 nM | – |
| COC(=O)N[C@H](C(=O)N1CCC[C@H]1c1nc2ccc3cc(-c4ccc5cc(-c6cnc([C@@H]7CCCN7C(=O)[C@H](NC(=O)OC)c7ccccc7)[nH]6)ccc5n4)ccc3c2[nH]1)C(C)C [compound 298] | < 1 nM | – |
| CC[C@H](C)[C@H](NC(=O)OC)C(=O)N1CCC[C@H]1c1ncc(-c2ccc3nc(-c4ccc5nc([C@@H]6CCCN6C(=O)[C@@H](NC(=O)OC)[C@@H](C)CC)[nH]c5c4)ccc3c2)[nH]1 [compound 383] | – | EC50 [2]: < 1 nM |
| COC(=O)N[C@H](C(=O)N1CCC[C@H]1c1nc(-c2ccc3cc(-c4ccc(-c5cnc([C@@H]6CCCN6C(=O)[C@@H](NC(=O)OC)C6CCOCC6)[nH]5)cc4F)ccc3c2)c[nH]1)C(C)C [compound 65] | < 1 nM | – |
| COC(=O)N[C@H](C(=O)N1CCC[C@H]1c1ncc(-c2ccc3cc(-c4ccc(-c5cnc([C@@H]6CCCN6C(=O)[C@H](NC(=O)OC)c6ccsc6)[nH]5)cc4)ccc3c2)[nH]1)[C@@H](C)O [compound 478] | – | EC50 (Huh-7, HCV 1b replicon): < 1 nM |
| CC[C@@H](C)[C@H](NC(=O)OC)C(=O)N1CCC[C@H]1c1ncc(-c2ccc3cc(-c4ccc5nc([C@@H]6CCCN6C(=O)[C@@H](NC(=O)OC)[C@H](C)CC)[nH]c5c4)ccc3c2)[nH]1 [compound 225] | < 1 nM | – |
| COC(=O)N[C@H](C(=O)N1CCC[C@H]1c1ncc(-c2ccc3cc(-c4ccc(-c5cnc([C@@H]6CCCN6C(=O)[C@H](NC(=O)OC)c6ccccc6)[nH]5)nn4)ccc3c2)[nH]1)[C@@H](C)O [compound 501] | – | EC50 (Huh-7, HCV 1b replicon): < 1 nM |
| COC(=O)N[C@H](C(=O)N1CCC[C@H]1c1ncc(-c2ccc(-c3ccc4cc(-c5c[nH]c([C@@H]6CCCN6C(=O)[C@H](NC(=O)OC)c6ccccc6)n5)ccc4c3)c(F)c2)[nH]1)C(C)C [compound 67] | < 1 nM | – |
| COC(=O)N[C@H](C(=O)N1CCC[C@H]1c1ncc(-c2ccc3ccc(C45CCC(c6cnc([C@@H]7CCCN7C(=O)[C@@H](NC(=O)OC)C(C)C)[nH]6)(CC4)CC5)cc3c2)[nH]1)C(C)C [compound 261] | 1 to 9.9 nM | – |
| CCC(CC)[C@H](NC(=O)OC)C(=O)N1CCC[C@H]1c1ncc(-c2ccc(-c3ccc4cc(-c5cnc([C@@H]6CCCN6C(=O)[C@@H](NC(=O)OC)C(CC)CC)[nH]5)ccc4c3)cc2)[nH]1 [compound 171] | < 1 nM | – |
| COC(=O)N[C@H](C(=O)N1CCC[C@H]1CNC(=O)c1ccc2cc(-c3ccc(-c4cnc([C@@H]5CCCN5C(=O)[C@@H](NC(=O)OC)C(C)C)[nH]4)cc3)ccc2c1)C(C)C [compound 574] | – | EC50 (Huh-7, HCV 1b replicon): < 1 nM |
| COC(=O)N[C@H](C(=O)N1CCC[C@H]1c1ncc(-c2cnc3cc(-c4ccc5nc([C@@H]6CCCN6C(=O)[C@@H](NC(=O)OC)C6CCOCC6)[nH]c5c4)ccc3c2)[nH]1)C(C)C [compound 192] | < 1 nM | – |
| COC(=O)N[C@H](C(=O)N1CCC[C@H]1c1ncc(-c2ccc3cc(-c4ccc(-c5cnc([C@@H]6CCCN6C(=O)[C@H](NC(=O)OC)c6cccs6)[nH]5)cc4)ccc3c2)[nH]1)[C@@H](C)OC [331-1] | – | EC50 [2]: < 1 nM |
| COC(=O)N[C@H](C(=O)N1CCC[C@H]1c1nc2ccc(-c3ccc4cc(-c5ccc6nc([C@@H]7CCCN7C(=O)[C@@H](NC(=O)OC)C7CCOCC7)[nH]c6c5)ccc4c3)cc2[nH]1)C1CCOCC1 [compound 279] | < 1 nM | – |
| COC(=O)N[C@H](C(=O)N1CCC[C@H]1c1ncc(-c2ccc3nc(-c4ccc5nc([C@@H]6CCCN6C(=O)[C@@H](NC(=O)OC)C6CCCC6)[nH]c5c4)ccc3c2)[nH]1)C1CCCC1 [compound 381] | – | EC50 [2]: < 1 nM |
| COC(=O)N[C@H](C(=O)N1CCC[C@H]1C(=O)N[C@H](C)c1ccc(-c2ccc3cc(-c4cnc([C@@H]5CCCN5C(=O)[C@@H](NC(=O)OC)C(C)C)[nH]4)ccc3c2)cc1)C(C)C [compound 561] | – | EC50 (Huh-7, HCV 1b replicon): 10 to 999 nM |
| COC(=O)N[C@H](C(=O)N1CCC[C@H]1c1ncc(-c2ccc(-c3ccc4cc(-c5cnc([C@@H]6CCCN6C(=O)[C@H](NC(=O)OC6CCOCC6)c6ccccc6)[nH]5)ccc4n3)c(F)c2)[nH]1)C(C)C [compound 121] | < 1 nM | – |
| COC(=O)N[C@H](C(=O)N1CCC[C@H]1c1nc(-c2ccc3nc(-c4ccc(-c5cnc([C@@H]6CCCN6C(=O)[C@@H](NC(=O)OC)C(C)C)[nH]5)cc4F)ccc3c2)c[nH]1)C(C)C [compound 96] | < 1 nM | – |
